Reference: patent US10196357B2, “Biaryl compositions and methods for modulating a kinase cascade” (Athenex, Inc., priority 2007, dated 2019)

Key:
[1] = test system: L3.6pl cells; experiment: growth inhibition (BrdU), L3.6pl; assay type: cell-based, human; details: Homo sapiens, L3.6pl, L3.6pl (Pancreas) cells, single agent
Source text: L3.6pl cells are previously described in Trevino et al. Am J Pathol.

[2] = test system: c-Src 3T3 cells; experiment: BrdU cell growth inhibition, c-Src 3T3; assay type: cell-based, mouse; details: Mus musculus; for GI50: c-Src 3T3 (c-Src527F/NIH3T3) cells, read-out: GI50
Outline: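 c-Src 3T3 cells on poly-D-lysine plates in DMEM with 2% FBS, L-glutamine, pyruvate and 10 mM HEPES. Compounds came from 20 mM DMSO stocks diluted in DMEM/10% FBS. Proliferation was read by colorimetric BrdU-incorporation ELISA, and GI50 was extrapolated from growth relative to time-zero and untreated controls.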

[3] = target: isolated Src (Homo sapiens, UniProt P12931); experiment: titration against isolated Src; assay type: biochemical; details: titration data
Chain of isolated Src (P12931 whole entry): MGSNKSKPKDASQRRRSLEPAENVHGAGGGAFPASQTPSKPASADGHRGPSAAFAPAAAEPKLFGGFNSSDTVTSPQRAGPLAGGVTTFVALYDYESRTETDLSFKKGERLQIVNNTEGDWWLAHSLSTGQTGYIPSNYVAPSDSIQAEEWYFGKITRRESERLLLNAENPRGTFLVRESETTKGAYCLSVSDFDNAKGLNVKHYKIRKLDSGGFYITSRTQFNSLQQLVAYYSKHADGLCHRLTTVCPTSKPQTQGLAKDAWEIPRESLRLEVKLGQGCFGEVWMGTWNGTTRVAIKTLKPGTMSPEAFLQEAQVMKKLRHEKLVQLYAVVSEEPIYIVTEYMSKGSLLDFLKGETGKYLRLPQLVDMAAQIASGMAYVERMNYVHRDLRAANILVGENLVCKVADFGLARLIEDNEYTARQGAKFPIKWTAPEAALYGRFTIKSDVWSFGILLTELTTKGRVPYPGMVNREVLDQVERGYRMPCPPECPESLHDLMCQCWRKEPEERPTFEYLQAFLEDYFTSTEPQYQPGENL

[4] = target: isolated FAK (Homo sapiens, UniProt Q05397); experiment: titration against isolated FAK; assay type: biochemical; details: titration data
Chain of isolated FAK (Q05397 whole entry): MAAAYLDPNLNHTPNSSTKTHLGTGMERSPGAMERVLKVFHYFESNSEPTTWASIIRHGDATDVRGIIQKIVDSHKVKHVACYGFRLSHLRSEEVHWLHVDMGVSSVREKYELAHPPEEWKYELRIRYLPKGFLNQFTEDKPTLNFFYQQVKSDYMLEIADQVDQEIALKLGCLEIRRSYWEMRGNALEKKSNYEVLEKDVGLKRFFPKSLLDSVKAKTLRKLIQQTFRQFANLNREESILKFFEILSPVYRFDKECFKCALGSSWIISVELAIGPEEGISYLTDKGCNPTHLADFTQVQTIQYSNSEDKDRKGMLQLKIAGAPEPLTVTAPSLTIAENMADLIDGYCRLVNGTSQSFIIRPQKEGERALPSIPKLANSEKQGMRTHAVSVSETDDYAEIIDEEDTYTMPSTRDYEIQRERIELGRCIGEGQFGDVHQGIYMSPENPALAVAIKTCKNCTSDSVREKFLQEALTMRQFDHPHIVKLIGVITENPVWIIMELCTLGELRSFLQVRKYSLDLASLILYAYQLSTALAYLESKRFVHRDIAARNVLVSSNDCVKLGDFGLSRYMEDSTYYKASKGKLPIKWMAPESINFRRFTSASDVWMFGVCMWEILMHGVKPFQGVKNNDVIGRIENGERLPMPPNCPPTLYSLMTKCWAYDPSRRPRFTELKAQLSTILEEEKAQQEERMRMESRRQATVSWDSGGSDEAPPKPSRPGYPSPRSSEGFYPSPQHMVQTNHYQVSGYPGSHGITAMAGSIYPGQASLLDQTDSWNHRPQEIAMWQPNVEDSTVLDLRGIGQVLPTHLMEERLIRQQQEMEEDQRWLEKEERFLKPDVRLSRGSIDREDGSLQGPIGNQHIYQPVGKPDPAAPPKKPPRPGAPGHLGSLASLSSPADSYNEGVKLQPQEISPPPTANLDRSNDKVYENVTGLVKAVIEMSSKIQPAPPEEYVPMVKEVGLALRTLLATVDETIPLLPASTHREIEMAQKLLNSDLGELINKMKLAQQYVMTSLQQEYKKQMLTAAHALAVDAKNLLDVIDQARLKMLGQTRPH

[5] = test system: SKOV-3 (Ovarian); experiment: growth inhibition (BrdU), SKOV-3; assay type: cell-based, Human; details: Homo sapiens, SK-OV-3; SKOV-3 (Ovarian) cells
Source text: Growth Inhibition. […] T1 values≤T0 values were designated as T, cytotoxicity.

[6] = test system: GL261 glioma cells; experiment: intracranial GL261 glioma survival study; assay type: in vivo, C57BL/6 mice; details: 5 mg/kg weekly ×1 oral; C57BL/6 mice, intracranial GL261
Protocol: (§1) A brain tumor mouse xenograft study was conducted comparing KX2-361 and KX2-391 (KXO1) to Temodar®. The studies were conducted in C57BL/6 mice. GL261 glioma cells (1×10^5 in 5 μl DMEM) were implanted intracranial coordinates: bregma, lateral 2.0 mm, anterior 1.2 mm, 3.0 mm depth dura. Treatment was initiated 3 days post implantation. The groups were as follows (all doses in 100 μl H2O):
The median survival range and the log-rank (Mantel-Cox) statistical test results comparing the survival distributions of the samples.

[7] = body weight in GL261 glioma survival study; assay type: in vivo; details: Temodar 5 mg/kg, C57BL/6 mice
Protocol: as §1
FIGS. 49A-E show the weight gain in each of the C57BL/6 mice in the different treatment groups. The average weight at endpoint for each of the treatment groups is shown below in Table 30. FIG. 50 is a graph showing the average weights over a 40-day period for each of the treatment groups.

[8] = noise-induced hearing loss; assay type: in vivo, Chinchillas; details: chinchilla ears treated on round window, 4 kHz band noise 105 dB SPL 4 h, days 1, 7, 21; relative to control ears
Protocol: Chinchillas (N=6) were used in studies of noise-induced hearing loss. The animals' hearing sensitivity was measured using standard electrophysical techniques before the experimental manipulation. […] Animals were anesthetized, the auditory bullae were opened, and the left and right cochleas were visualized. The round window leading to the scala tympani of the cochlea was used as the access point for drug application. Animals were treated with KX1-004, KX1-141, KX1-329 or KX2-328 (a non-ATP competitive inhibitor from AstraZeneca, KX2-238), emulsified in DMSO, in 1000 mM of saline solution, which was placed on the round window of one ear. KX1-004:
A control solution of 3 mM DMSO in 1000 mM of saline solution was placed on the round window of the other ear. The solution was allowed to set on the round window for 30 minutes, then the auditory bullae were closed. […] Following the noise exposure, the animals' hearing was tested at day 1, day 7, and day 21 to determine evoked potential threshold shifts. Permanent threshold shift was assessed at day 21.
FIGS. 10-12 show the average threshold shifts for animals treated with KX1-004, KX1-141, KX1-329 or KX2-328.

[9] = test system: HT29 cell line; experiment: BrdU cell growth inhibition, HT29; assay type: cell-based, human; details: Homo sapiens
Outline: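 HT29 colon carcinoma cells treated with compounds diluted from 20 mM DMSO stocks into DMEM/10% FBS. Proliferation read as colorimetric BrdU incorporation ELISA; GI calculated relative to untreated cells at time 0 and control cells at day n, with GI50 extrapolated. Net cell loss below time-0 level scored as cytotoxicity.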

[10] = test system: osteoclast precursors derived from spleen cells; experiment: osteoclast formation from spleen cells; assay type: cell-based; details: 5 days, RANKL and M-CSF, vs untreated control
Protocol: To determine the effect of the compounds on osteoclast formation, the compounds were added to osteoclast precursors derived from spleen cells. For the generation of spleen-derived osteoclasts, spleen cells comprising osteoclast precursors were treated with Rapamycin, KX1-141, KX2-328 (AstraZeneca compound), or KX1-329 for 5 days in the presence of receptor activator of nuclear factor-xB ligand (RANKL) and macrophage colony-stimulating factor (M-CSF). In in vitro murine or human osteoclast models, soluble RANKL enables osteoclast precursors to differentiate in the presence of M-CSF (Quinn, et al.; 1998, Endocrinology, 139, 4424-4427; Jimi, et al.; 1999, J. Immunol., 163, 434-442). The untreated control cells were incubated in the presence of RANKL and M-CSF alone. Rapamycin was used as a positive control for the inhibition of osteoclast formation.
For generating spleen-derived osteoclasts, spleen cells were treated as described above. […] Cells were then stained with the osteoclast marker, tartrate-resistant acid phosphatase (TRAP) to visualize differentiated cells. The numbers of TRAP-positive osteoclasts were counted.

[11] = test system: osteoclasts on bone slices; experiment: osteoclast formation on bone slices; assay type: cell-based; details: vs untreated control
Protocol: To determine the effects of the compounds on osteoclast formation on bone slices, the bone slices were treated with Rapamycin, KX1-141, KX2-328, or KX1-329. […] The number of osteoclasts on the bone slices were counted.
Bone slices were treated as indicated above. […] The bone slices were then stained with TRAP.

[12] = test system: osteoclasts; experiment: osteoclast survival; assay type: cell-based; details: 48 hours, RANKL and M-CSF, vs untreated control
Protocol: To determine the effect of the compounds on osteoclast survival, osteoclasts were treated with Rapamycin, KX1-141, KX2-328, or KX1-329 for 48 hours in the presence of RANKL and M-CSF. The untreated, control cells were incubated in the presence of RANKL and M-CSF alone. Rapamycin was used as a positive control for the inhibition of osteoclast survival.
As described above, osteoclasts were treated with Rapamycin, KX1-141, KX2-328, or KX1-329 for 48 hours in the presence of RANKL and M-CSF. […] Cells were then stained with TRAP and the number of TRAP-positive osteoclasts were counted.

[13] = test system: osteoblasts; experiment: osteoblast protein expression; assay type: cell-based
Protocol: The enzyme alkaline phosphatase has been used as an indicator of osteoblast activity, as it is involved in making phosphate available for calcification of bone.
To determine the effects of the compounds on osteoblast activity and protein expression, osteoblasts were treated with medium, DMSO, BMP2, KX1-141, KX2-328, or KX1-329 as indicated above. The protein concentration in cell lysates was determined (μg/10 μl) (FIG. 23).

[14] = test system: resorption pits on bone slices; experiment: resorption pit formation on bone slices; assay type: cell-based; details: vs untreated control
Protocol: During the resorption of bone, osteoclasts form resorption pits. To determine the effects of the compounds on resorption pit formation on bone slices, the bone slices were treated with Rapamycin, KX1-141, KX2-328, or KX1-329, as described above. […] The number of resorption pits on the bone slices was determined.
Bone slices were treated as indicated above. […] The bone slices were stained with Toluidine Blue to reveal resorption pits, which are indicators of osteoclast-mediated resorption of bone.

Work on `Nc1ccn([C@@H]2O[C@H](CO)[C@@H](O)C2(F)F)c(=O)n1` [Gemcitabine, gemcitabine, reference compound] yielded a GI50 [1] of 2 nM.

Work on `CN1CCN(CCOc2ccc(-c3ccc(CC(=O)NCc4cccc(F)c4)nc3)c(F)c2)CC1` [KX2-394] yielded a GI50 [2] of 13 nM, an IC50 [3] of 5000 nM and an IC50 [4] of over 48000 nM.

For `CC(=O)O[C@H]1C(=O)[C@@]2(C)[C@H]([C@H](OC(=O)c3ccccc3)[C@]3(O)C[C@H](OC(=O)[C@H](O)[C@@H](NC(=O)c4ccccc4)c4ccccc4)C(C)=C1C3(C)C)[C@]1(OC(C)=O)CO[C@@H]1C[C@@H]2O` [taxol, paclitaxel, reference compound], the GI50 [5] was 3.9 nM.

With `Cn1nnc2c(C(N)=O)ncn2c1=O` [Temodar ®, Temodar®, reference compound] the Median survival [6] was 29, the “survival Range” value [6] was 26-29 and the “Average weight at endpoint” value [7] was 13.3 g.

For `O=C(Cc1ccc(-c2ccccc2)cn1)NCc1cccc(F)c1` [KX1-329], the “average dB threshold shifts” value [8] was “lower”, the activity at 0.1 µM ([2]; NIH3T3, 100 nM, read-out: c-Src 3T3 Growth, % of Control Mean, n = 3) was 96% and the activity at 1 µM ([2]; NIH3T3, 1.0 uM, read-out: c-Src 3T3 Growth, % of Control Mean, n = 3) was under 0%. It also gave an activity at 10 µM ([2]; NIH3T3, 10 uM, read-out: c-Src 3T3 Growth, % of Control Mean, n = 3) of under 0%, a GI50 [2] of 269 nM and a GI50 ([9]; HT-29, HT29 (Colon) cells, read-out: GI50) of 338 nM. The activity at 0.05 µM ([9]; HT-29, 50 nM, read-out: HT-29 Growth, % of Control Mean, n = 3) was 101%, the activity at 0.5 µM ([9]; HT-29, 500 nM, read-out: HT-29 Growth, % of Control Mean, n = 3) was under 0% and the activity at 5 µM ([9]; HT-29, 5 uM, read-out: HT-29 Growth, % of Control Mean, n = 3) was under 0%. For the same molecule, the “formation of osteoclasts (staining)” value [10] was “inhibited”, the “number of TRAP-positive osteoclasts (formation)” value [10] was “reduced” and the “number of osteoclasts on the bone slices” value ([11]; FIG. 20A) was “reduced”. For the same molecule, the “number of TRAP-positive osteoclasts on the bone slices” value ([11]; FIG. 21A) was “reduced”, the “number of TRAP-positive osteoclasts (survival)” value [12] was “reduced” and the “survival of osteoclasts (staining)” value [12] was “inhibited”. For the same molecule, the “protein concentration in osteoblast cell lysates” value ([13]; 0.06 μM and 0.3 μM) was “increased protein concentration”, the “protein concentration in osteoblast cell lysates” value ([13]; […] and 7.5 μM) was “reduced protein concentration” and the “number of resorption pits on the bone slices” value ([14]; FIG. 20B) was “reduced”. For the same molecule, the “number of resorption pits on the bone slices (Toluidine Blue)” value ([14]; FIG. 21B) was “reduced”.
